Assay results from US20230123334A1, “AMINO LIPID COMPOUND, PREPARATION METHOD THEREFOR, AND APPLICATION THEREOF” (SHENZHEN SHENXIN BIOTECHNOLOGY CO., LTD., priority 2020, published 2023).

Tested on: HEK293 cells
Assay: Preliminary screening as mRNA vectors, EGFP mRNA transfection of HEK293 cells
Assay type: cell-based
Conditions: EGFP mRNA 50 ng per well, 96-well plates; percentage of GFP fluorescent cells relative to total number of cells (Hoechst)
Summary of the method: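 Screening format: EGFP mRNA transfection (50 ng/well) into HEK293 in 10% FBS-supplemented DMEM. Percent green fluorescent cells, normalised to Hoechst nuclear count, gave the value; Lipofectamine2000 was the reference transfectant.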

Row | Structure (SMILES) | Absolute mRNA transfection efficiency in HEK293 cells [%]
1 | CCCCCCCCCCCSc1nc(NCCCCCCCC)nc(NCC2CCN(C)CC2)n1 [Compound D10S11N8] | 46.1
2 | CCCCCCCCCCCSc1nc(NCCCCCCCCC)nc(NCC2CCN(C)CC2)n1 [Compound D10S11N9] | 87.7
3 | CCCCCCCCCCCNc1nc(NCC2CCN(C)CC2)nc(SCCCCCCCCCCC)n1 [Compound D10S11N11] | 27.7
4 | CCCCCCCCCCCCNc1nc(NCC2CCN(C)CC2)nc(SCCCCCCCCCCC)n1 [Compound D10S11N12] | 24.7
5 | CCCCCCCCCCCCCNc1nc(NCC2CCN(C)CC2)nc(SCCCCCCCCCCC)n1 [Compound D10S11N13] | 10.4
6 | CCCCCCCCCCCCCCCNc1nc(NCC2CCN(C)CC2)nc(SCCCCCCCCCCC)n1 [Compound D10S11N15] | 18.6
7 | CCCCCCCCCCCCCCCCNc1nc(NCC2CCN(C)CC2)nc(SCCCCCCCCCCC)n1 [Compound D10S11N16] | 10.4
8 | CCCCCCCCCCCCCCCCCCNc1nc(NCC2CCN(C)CC2)nc(SCCCCCCCCCCC)n1 [Compound D10S11N18] | 9.6
9 | CCCCCCCCCCCCSc1nc(NCCCCCC)nc(NCC2CCN(C)CC2)n1 [Compound D10S12N6] | 0.2
10 | CCCCCCCCCCCCSc1nc(NCCCCCCC)nc(NCC2CCN(C)CC2)n1 [Compound D10S12N7] | 1.7
11 | CCCCCCCCCCCCSc1nc(NCCCCCCCC)nc(NCC2CCN(C)CC2)n1 [Compound D10S12N8] | 12.9
12 | CCCCCCCCCCCCSc1nc(NCCCCCCCCC)nc(NCC2CCN(C)CC2)n1 [Compound D10S12N9] | 17.5
13 | CCCCCCCCCCCCSc1nc(NCCCCCCCCCCC)nc(NCC2CCN(C)CC2)n1 [Compound D10S12N11] | 26.6
14 | CCCCCCCCCCCCNc1nc(NCC2CCN(C)CC2)nc(SCCCCCCCCCCCC)n1 [Compound D10S12N12] | 31.5
15 | CCCCCCCCCCCCCNc1nc(NCC2CCN(C)CC2)nc(SCCCCCCCCCCCC)n1 [Compound D10S12N13] | 1.8
16 | CCCCCCCCCCCCCCCNc1nc(NCC2CCN(C)CC2)nc(SCCCCCCCCCCCC)n1 [Compound D10S12N15] | 4.1
17 | CCCCCCCCCCCCCCCCNc1nc(NCC2CCN(C)CC2)nc(SCCCCCCCCCCCC)n1 [Compound D10S12N16] | 3.4
18 | CCCCCCCCCCCCCCCCCCNc1nc(NCC2CCN(C)CC2)nc(SCCCCCCCCCCCC)n1 [Compound D10S12N18] | 4.1
19 | CCCCCCCCCCCCCCSc1nc(NCCCCCC)nc(NCC2CCN(C)CC2)n1 [Compound D10S14N6] | 41.9
20 | CCCCCCCCCCCCCCSc1nc(NCCCCCCC)nc(NCC2CCN(C)CC2)n1 [Compound D10S14N7] | 55.0

Row | Structure (SMILES) | Absolute mRNA transfection efficiency in HEK293 cells [%]
21 | CCCCCCCCCCCCCCSc1nc(NCCCCCCCC)nc(NCC2CCN(C)CC2)n1 [Compound D10S14N8] | 43.8
22 | CCCCCCCCCCCCCCSc1nc(NCCCCCCCCC)nc(NCC2CCN(C)CC2)n1 [Compound D10S14N9] | 54.2
23 | CCCCCCCCCCCCCCSc1nc(NCCCCCCCCCCC)nc(NCC2CCN(C)CC2)n1 [Compound D10S14N11] | 21.4
24 | CCCCCCCCCCCCCCSc1nc(NCCCCCCCCCCCC)nc(NCC2CCN(C)CC2)n1 [Compound D10S14N12] | 6.9
25 | CCCCCCCCCCCCCCSc1nc(NCCCCCCCCCCCCC)nc(NCC2CCN(C)CC2)n1 [Compound D10S14N13] | 11.7
26 | CCCCCCCCCCCCCCCNc1nc(NCC2CCN(C)CC2)nc(SCCCCCCCCCCCCCC)n1 [Compound D10S14N15] | 3.3
27 | CCCCCCCCCCCCCCCCNc1nc(NCC2CCN(C)CC2)nc(SCCCCCCCCCCCCCC)n1 [Compound D10S14N16] | 3.0
28 | CCCCCCCCCCCCCCCCCCNc1nc(NCC2CCN(C)CC2)nc(SCCCCCCCCCCCCCC)n1 [Compound D10S14N18] | 2.6
29 | CCCCCCCCCCCCCCCSc1nc(NCCCCCC)nc(NCC2CCN(C)CC2)n1 [Compound D10S15N6] | 18.4
30 | CCCCCCCCCCCCCCCSc1nc(NCCCCCCC)nc(NCC2CCN(C)CC2)n1 [Compound D10S15N7] | 22.1
31 | CCCCCCCCCCCCCCCSc1nc(NCCCCCCCC)nc(NCC2CCN(C)CC2)n1 [Compound D10S15N8] | 12.9
32 | CCCCCCCCCCCCCCCSc1nc(NCCCCCCCCC)nc(NCC2CCN(C)CC2)n1 [Compound D10S15N9] | 12.8
33 | CCCCCCCCCCCCCCCSc1nc(NCCCCCCCCCCC)nc(NCC2CCN(C)CC2)n1 [Compound D10S15N11] | 2.7
34 | CCCCCCCCCCCCCCCSc1nc(NCCCCCCCCCCCC)nc(NCC2CCN(C)CC2)n1 [Compound D10S15N12] | 5.1
35 | CCCCCCCCCCCCCCCSc1nc(NCCCCCCCCCCCCC)nc(NCC2CCN(C)CC2)n1 [Compound D10S15N13] | 5.4
36 | CCCCCCCCCCCCCCCNc1nc(NCC2CCN(C)CC2)nc(SCCCCCCCCCCCCCCC)n1 [Compound D10S15N15] | 2.4
37 | CCCCCCCCCCCCCCCCNc1nc(NCC2CCN(C)CC2)nc(SCCCCCCCCCCCCCCC)n1 [Compound D10S15N16] | 6.1
38 | CCCCCCCCCCCCCCCCCCNc1nc(NCC2CCN(C)CC2)nc(SCCCCCCCCCCCCCCC)n1 [Compound D10S15N18] | 4.2
39 | CCCCCCCCCCCCCCCCSc1nc(NCCCCCC)nc(NCC2CCN(C)CC2)n1 [Compound D10S16N6] | 86.9
40 | CCCCCCCCCCCCCCCCSc1nc(NCCCCCCC)nc(NCC2CCN(C)CC2)n1 [Compound D10S16N7] | 29.6

Row | Structure (SMILES) | Absolute mRNA transfection efficiency in HEK293 cells [%]
41 | CCCCCCCCCCCCCCCCSc1nc(NCCCCCCCC)nc(NCC2CCN(C)CC2)n1 [Compound D10S16N8] | 70.4
42 | CCCCCCCCCCCCCCCCSc1nc(NCCCCCCCCC)nc(NCC2CCN(C)CC2)n1 [Compound D10S16N9] | 49.2
43 | CCCCCCCCCCCCCCCCSc1nc(NCCCCCCCCCCC)nc(NCC2CCN(C)CC2)n1 [Compound D10S16N11] | 37.8
44 | CCCCCCCCCCCCCCCCSc1nc(NCCCCCCCCCCCC)nc(NCC2CCN(C)CC2)n1 [Compound D10S16N12] | 9.2
45 | CCCCCCCCCCCCCCCCSc1nc(NCCCCCCCCCCCCC)nc(NCC2CCN(C)CC2)n1 [Compound D10S16N13] | 7.1
46 | CCCCCCCCCCCCCCCCSc1nc(NCCCCCCCCCCCCCCC)nc(NCC2CCN(C)CC2)n1 [Compound D10S16N15] | 2.6
47 | CCCCCCCCCCCCCCCCNc1nc(NCC2CCN(C)CC2)nc(SCCCCCCCCCCCCCCCC)n1 [Compound D10S16N16] | 2.8
48 | CCCCCCCCCCCCCCCCCCNc1nc(NCC2CCN(C)CC2)nc(SCCCCCCCCCCCCCCCC)n1 [Compound D10S16N18] | 3.0
49 | CCCCCCCCCCCCCCCCCCSc1nc(NCCCCCC)nc(NCC2CCN(C)CC2)n1 [Compound D10S18N6] | 58.8
50 | CCCCCCCCCCCCCCCCCCSc1nc(NCCCCCCC)nc(NCC2CCN(C)CC2)n1 [Compound D10S18N7] | 45.8
51 | CCCCCCCCCCCCCCCCCCSc1nc(NCCCCCCCC)nc(NCC2CCN(C)CC2)n1 [Compound D10S18N8] | 16.8
52 | CCCCCCCCCCCCCCCCCCSc1nc(NCCCCCCCCC)nc(NCC2CCN(C)CC2)n1 [Compound D10S18N9] | 8.9
53 | CCCCCCCCCCCCCCCCCCSc1nc(NCCCCCCCCCCC)nc(NCC2CCN(C)CC2)n1 [Compound D10S18N11] | 4.5
54 | CCCCCCCCCCCCCCCCCCSc1nc(NCCCCCCCCCCCC)nc(NCC2CCN(C)CC2)n1 [Compound D10S18N12] | 2.0
55 | CCCCCCCCCCCCCCCCCCSc1nc(NCCCCCCCCCCCCC)nc(NCC2CCN(C)CC2)n1 [Compound D10S18N13] | 2.9
56 | CCCCCCCCCCCCCCCCCCSc1nc(NCCCCCCCCCCCCCCC)nc(NCC2CCN(C)CC2)n1 [Compound D10S18N15] | 0.2
57 | CCCCCCCCCCCCCCCCCCSc1nc(NCCCCCCCCCCCCCCCC)nc(NCC2CCN(C)CC2)n1 [Compound D10S18N16] | 0.4
58 | CCCCCCCCCCCCCCCCCCNc1nc(NCC2CCN(C)CC2)nc(SCCCCCCCCCCCCCCCCCC)n1 [Compound D10S18N18] | 0.1
